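48-hour exposure; five concentrations; linearly interpolated endpoints. GI50: concentration for 50% inhibition of growth. TGI: concentration producing complete growth inhibition.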
What was measured:
Assay in all cases: inhibition of tumour cell growth, NCI panel, 48 h
SR leukemia = tested on: SR leukemia
HCT-15 colon = tested on: HCT-15 colon
OVCAR-4 ovarian = tested on: OVCAR-4 ovarian
NCI-H522 lung = tested on: NCI-H522 lung
OVCAR-5 ovarian = tested on: OVCAR-5 ovarian
SK-MEL-2 melanoma = tested on: SK-MEL-2 melanoma
M14 melanoma = tested on: M14 melanoma
A498 renal = tested on: A498 renal
EKVX NSCLC = tested on: EKVX NSCLC
A549 NSCLC = tested on: A549 NSCLC
CCRF-CEM leukemia = tested on: CCRF-CEM leukemia
SF-268 CNS = tested on: SF-268 CNS
ACHN renal = tested on: ACHN renal
HS 578T breast = tested on: HS 578T breast
HOP-92 NSCLC = tested on: HOP-92 NSCLC
SK-MEL-28 melanoma = tested on: SK-MEL-28 melanoma
IGROV1 ovarian = tested on: IGROV1 ovarian
LOX IMVI melanoma = tested on: LOX IMVI melanoma
SN12C renal = tested on: SN12C renal
OVCAR-3 ovarian = tested on: OVCAR-3 ovarian
HL-60(TB) leukemia = tested on: HL-60(TB) leukemia
NCI/ADR-RES ovarian = tested on: NCI/ADR-RES ovarian
MALME-3M melanoma = tested on: MALME-3M melanoma
MCF7 breast = tested on: MCF7 breast
UACC-257 melanoma = tested on: UACC-257 melanoma
SK-MEL-5 melanoma = tested on: SK-MEL-5 melanoma
NCI-H226 lung = tested on: NCI-H226 lung
RXF 393 renal = tested on: RXF 393 renal
NCI-H23 lung = tested on: NCI-H23 lung
HCT-116 colon = tested on: HCT-116 colon
K-562 leukemia = tested on: K-562 leukemia
T-47D breast = tested on: T-47D breast
HOP-62 NSCLC = tested on: HOP-62 NSCLC
RPMI-8226 leukemia = tested on: RPMI-8226 leukemia
TK-10 renal = tested on: TK-10 renal
786-0 renal = tested on: 786-0 renal
HCC-2998 colon = tested on: HCC-2998 colon
COLO 205 colon = tested on: COLO 205 colon
SF-295 CNS = tested on: SF-295 CNS
KM12 colon = tested on: KM12 colon
OVCAR-8 ovarian = tested on: OVCAR-8 ovarian
UO-31 renal = tested on: UO-31 renal
U251 CNS = tested on: U251 CNS
HT29 colon = tested on: HT29 colon
SNB-19 CNS = tested on: SNB-19 CNS
MDA-MB-231 breast = tested on: MDA-MB-231 breast
CAKI-1 renal = tested on: CAKI-1 renal
PC-3 prostate = tested on: PC-3 prostate
NCI-H460 lung = tested on: NCI-H460 lung
SNB-75 CNS = tested on: SNB-75 CNS
SK-OV-3 ovarian = tested on: SK-OV-3 ovarian
MOLT-4 leukemia = tested on: MOLT-4 leukemia
MDA-MB-435 = tested on: MDA-MB-435
SW-620 colon = tested on: SW-620 colon
BT-549 breast = tested on: BT-549 breast
UACC-62 melanoma = tested on: UACC-62 melanoma
DU-145 prostate = tested on: DU-145 prostate
SF-539 CNS = tested on: SF-539 CNS

`CC(=C(c1ccc(OCCN2CCCC2)cc1)c1ccc(OCCN2CCCC2)cc1)c1ccc(Cl)cc1` showed a GI50 (SR leukemia) of 745 nM, a TGI (SR leukemia) of 16700 nM and a GI50 (HCT-15 colon) of 655 nM. The TGI (HCT-15 colon) was 2530 nM, the GI50 (OVCAR-4 ovarian) was 2650 nM and the TGI (OVCAR-4 ovarian) was 5390 nM. It also gave a GI50 (NCI-H522 lung) of 2960 nM, a TGI (NCI-H522 lung) of 5990 nM and a GI50 (OVCAR-5 ovarian) of 2560 nM. For the same compound, the TGI (OVCAR-5 ovarian) was 4900 nM, the GI50 (SK-MEL-2 melanoma) was 3100 nM and the TGI (SK-MEL-2 melanoma) was 6220 nM. For the same compound, the GI50 (M14 melanoma) was 2130 nM, the TGI (M14 melanoma) was 4590 nM and the GI50 (A498 renal) was 2450 nM. The TGI (A498 renal) was 4850 nM, the GI50 (EKVX NSCLC) was 2270 nM and the TGI (EKVX NSCLC) was 4650 nM. The GI50 (A549 NSCLC) was 2740 nM, the TGI (A549 NSCLC) was 5740 nM and the GI50 (CCRF-CEM leukemia) was 1400 nM. For the same compound, the TGI (CCRF-CEM leukemia) was 4720 nM, the GI50 (SF-268 CNS) was 2700 nM and the TGI (SF-268 CNS) was 5460 nM. It also gave a GI50 (ACHN renal) of 2530 nM, a TGI (ACHN renal) of 4780 nM and a GI50 (HS 578T breast) of 2680 nM. The TGI (HS 578T breast) was 6590 nM, the GI50 (HOP-92 NSCLC) was 1490 nM and the TGI (HOP-92 NSCLC) was 3920 nM. The GI50 (SK-MEL-28 melanoma) was 2640 nM, the TGI (SK-MEL-28 melanoma) was 5100 nM and the GI50 (IGROV1 ovarian) was 2560 nM. For the same compound, the TGI (IGROV1 ovarian) was 5110 nM, the GI50 (LOX IMVI melanoma) was 516 nM and the TGI (LOX IMVI melanoma) was 2620 nM. For the same compound, the GI50 (SN12C renal) was 2500 nM, the TGI (SN12C renal) was 4980 nM and the GI50 (OVCAR-3 ovarian) was 2640 nM. The TGI (OVCAR-3 ovarian) was 5300 nM, the GI50 (HL-60(TB) leukemia) was 3010 nM and the TGI (HL-60(TB) leukemia) was 6340 nM. For the same compound, the GI50 (NCI/ADR-RES ovarian) was 2810 nM, the TGI (NCI/ADR-RES ovarian) was 5720 nM and the GI50 (MALME-3M melanoma) was 2630 nM. For the same compound, the TGI (MALME-3M melanoma) was 5180 nM, the GI50 (MCF7 breast) was 409 nM and the TGI (MCF7 breast) was 2730 nM. For the same compound, the GI50 (UACC-257 melanoma) was 2970 nM, the TGI (UACC-257 melanoma) was 5850 nM and the GI50 (SK-MEL-5 melanoma) was 2740 nM. It also gave a TGI (SK-MEL-5 melanoma) of 5210 nM, a GI50 (NCI-H226 lung) of 3040 nM and a TGI (NCI-H226 lung) of 6180 nM. It also gave a GI50 (RXF 393 renal) of 2010 nM, a TGI (RXF 393 renal) of 4200 nM and a GI50 (NCI-H23 lung) of 2690 nM. For the same compound, the TGI (NCI-H23 lung) was 5200 nM, the GI50 (HCT-116 colon) was 1150 nM and the TGI (HCT-116 colon) was 3580 nM. The GI50 (K-562 leukemia) was 498 nM, the TGI (K-562 leukemia) was 1750 nM and the GI50 (T-47D breast) was 1940 nM. For the same compound, the TGI (T-47D breast) was 5020 nM, the GI50 (HOP-62 NSCLC) was 2930 nM and the TGI (HOP-62 NSCLC) was 5970 nM. It also gave a GI50 (RPMI-8226 leukemia) of 2570 nM, a TGI (RPMI-8226 leukemia) of 6740 nM and a GI50 (TK-10 renal) of 2580 nM. For the same compound, the TGI (TK-10 renal) was 5210 nM, the GI50 (786-0 renal) was 2110 nM and the TGI (786-0 renal) was 4520 nM. It also gave a GI50 (HCC-2998 colon) of 2700 nM, a TGI (HCC-2998 colon) of 5320 nM and a GI50 (COLO 205 colon) of 2730 nM. The TGI (COLO 205 colon) was 6140 nM, the GI50 (SF-295 CNS) was 2690 nM and the TGI (SF-295 CNS) was 5140 nM. For the same compound, the GI50 (KM12 colon) was 2660 nM, the TGI (KM12 colon) was 5630 nM and the GI50 (OVCAR-8 ovarian) was 3250 nM. The TGI (OVCAR-8 ovarian) was 7160 nM, the GI50 (UO-31 renal) was 2240 nM and the TGI (UO-31 renal) was 4460 nM. It also gave a GI50 (U251 CNS) of 2200 nM, a TGI (U251 CNS) of 4880 nM and a GI50 (HT29 colon) of 660 nM. It also gave a TGI (HT29 colon) of 2520 nM, a GI50 (SNB-19 CNS) of 2790 nM and a TGI (SNB-19 CNS) of 5300 nM. The GI50 (MDA-MB-231 breast) was 2370 nM, the TGI (MDA-MB-231 breast) was 4950 nM and the GI50 (CAKI-1 renal) was 2500 nM. The TGI (CAKI-1 renal) was 4850 nM, the GI50 (PC-3 prostate) was 2290 nM and the TGI (PC-3 prostate) was 4790 nM. For the same compound, the GI50 (NCI-H460 lung) was 2960 nM, the TGI (NCI-H460 lung) was 5580 nM and the GI50 (SNB-75 CNS) was 6850 nM. For the same compound, the TGI (SNB-75 CNS) was 16700 nM, the GI50 (SK-OV-3 ovarian) was 2900 nM and the TGI (SK-OV-3 ovarian) was 5490 nM. The GI50 (MOLT-4 leukemia) was 1380 nM, the TGI (MOLT-4 leukemia) was 4390 nM and the GI50 (MDA-MB-435) was 2620 nM. The TGI (MDA-MB-435) was 5030 nM, the GI50 (SW-620 colon) was 2160 nM and the TGI (SW-620 colon) was 4540 nM. The GI50 (BT-549 breast) was 2630 nM, the TGI (BT-549 breast) was 5120 nM and the GI50 (UACC-62 melanoma) was 2850 nM. For the same compound, the TGI (UACC-62 melanoma) was 5520 nM, the GI50 (DU-145 prostate) was 2600 nM and the TGI (DU-145 prostate) was 5140 nM. The GI50 (SF-539 CNS) was 2340 nM and the TGI (SF-539 CNS) was 4670 nM.

Reference: PubChem BioAssay (NCI)
